From patent US6518423B1, “Benzopiperidine derivatives” (Eisai Co., Ltd., priority 1996, dated 2003)

melting point	Structure (SMILES)
231 to 233 °C	O=C(NCCc1cn(Cc2ccc3c(c2)Nc2nccnc2S3)cn1)c1ccccc1
256 to 258 °C	Brc1nccn1Cc1ccc2c(c1)Nc1nccnc1S2
216 to 219 °C	c1ccc(Cc2nccn2Cc2ccc3c(c2)Nc2nccnc2S3)nc1
194 to 196 °C	CCOC(=O)c1c(C)ncn1Cc1ccc2c(c1)Nc1nccnc1S2
185 to 187 °C	O=C(O)C(F)C1C2CCCC1CN(Cc1ccc3c(c1)Nc1nccnc1S3)C2 (stereo not drawn)
202 to 203 °C	OC(c1ccc2c(c1)Nc1nccnc1S2)c1cc(Br)ccc1F (stereo not drawn)
> 290 °C	N#CN=C(N)c1ncnc2c1ncn2Cc1ccc2c(c1)Nc1nccnc1S2
219 to 220 °C	CCOC(=O)C(C)CCC1CCN(C(=N)Cc2ccc3c(c2)Nc2nccnc2S3)CC1.Cl (stereo not drawn)
197 to 198 °C	CN(C=NC#N)Cc1ccc2c(c1)Nc1nccnc1S2
212 to 214 °C	CC(=O)NC1CCN(Cc2ccc3c(c2)Nc2nccnc2S3)CC1
194 to 196 °C	COC(=O)CNS(=O)(=O)NC1CCN(Cc2ccc3c(c2)Nc2nccnc2S3)CC1
216 to 218 °C	CNS(=O)(=O)NC1CCN(Cc2ccc3c(c2)Nc2ncccc2S3)CC1
260 to 262 °C	O=C(O)C1(c2ccc(O)cc2)CCN(Cc2ccc3c(c2)Nc2nccnc2S3)CC1
142 to 146 °C	O=C(O)CC1CCN(Cc2ccc3c(c2)Nc2nccnc2S3)CC1
239 to 242 °C	CCOC(=O)c1ccc2c(c1)Nc1nccnc1N2C
218 to 222 °C	CS(=O)(=O)NCCN1c2ccccc2Nc2nccnc21
104 to 106 °C	c1cncc(CNCc2ccc3c(c2)Nc2nccnc2S3)c1
114 to 116 °C	O=C(O)CSc1ccc(NCc2ccc3c(c2)Nc2nccnc2S3)cn1
205 to 260 °C	O=S(=O)(c1ccccc1)N(Cc1ccc2c(c1)Nc1nccnc1S2)c1cccnc1

Further lines, the molecule ahead of its results:

Structure (SMILES)	melting point
CCCCCCCCC/C(=C\c1ncn(Cc2ccc3c(c2)Nc2nccnc2S3)c1C)C(=O)O	194 to 197 °C
O=C(O)/C=C/c1nccn1Cc1ccc2c(c1)Nc1nccnc1S2	243 to 244 °C
Cc1oncc1C(=O)NCCc1cn(Cc2ccc3c(c2)Nc2nccnc2S3)cn1	165 to 167 °C
Cc1c(CO)ncn1Cc1ccc2c(c1)Nc1nccnc1S2	> 270 °C (dec.)
c1cnc2c(c1)ncn2Cc1ccc2c(c1)Nc1nccnc1S2	249 to 251 °C
NS(=O)(=O)c1ccc(CNCc2ccc3c(c2)Nc2nccnc2S3)cc1	210 to 212 °C
CN(C)CCCNC(=O)Cc1ccc2c(c1)Nc1nccnc1S2	145 to 148 °C
CCCCNC(=O)OCc1ccc2c(c1)Nc1nccnc1S2	169 to 171 °C
CN(C)S(=O)(=O)NC1CCN(C(=N)Cc2ccc3c(c2)Nc2nccnc2S3)CC1.Cl	215 to 218 °C
N#CN=C(Cc1ccc2c(c1)Nc1nccnc1S2)NCCCn1ccnc1	205 to 208 °C
C(=N\c1ccccn1)/NCc1ccc2c(c1)Nc1nccnc1S2	137 to 142 °C
CC(CCC1CCN(Cc2ccc3c(c2)Nc2nccnc2O3)CC1)C(=O)O (stereo not drawn)	238 to 240 °C
CC(C)(CC(=O)O)C1CCN(Cc2ccc3c(c2)Nc2nccnc2S3)CC1	272 to 275 °C
O=C(O)C1CCN(S(=O)(=O)NC2CCN(Cc3ccc4c(c3)Nc3nccnc3S4)CC2)CC1	54 to 55 °C
CCOC1(CC(=O)O)CC2(CCN(Cc3ccc4c(c3)Nc3nccnc3S4)CC2)C1	226 to 227 °C
CC(C(=O)O)=C1CC2(CCN(Cc3ccc4c(c3)Nc3nccnc3S4)CC2)C1	251 to 252 °C
CC(CCC1CCN(Cc2ccc3c(c2)Sc2nccnc2N3)CC1)C(=O)O (stereo not drawn)	221 to 222 °C
c1ccc2ncc(NCc3ccc4c(c3)Nc3nccnc3S4)cc2c1	160 to 164 °C
c1ccc(CNc2ccc(NCc3ccc4c(c3)Nc3nccnc3S4)cn2)cc1	208 to 211 °C
O=C(O)COc1ccc(NCc2ccc3c(c2)Nc2nccnc2S3)cn1	170 °C
